Here are results for one compound from patent US10357525B2, “Use of a polysaccharide mixture for treating hyperglycemia” (TRINEO BIOTECHNOLOGY CO. LTD, priority 2017, dated 2019).

The assay deals with NIT-1 cells. As to the kind of experiment: STZ-induced apoptosis in NIT-1 cells, cell viability by MTT assay. The format is cell-based, mice. To be noted: STZ 8 μM alone, FIG. 1. How it is done: Cells. Cell line used in the present study was pancreatic beta cell line NIT-1 ([…], BCRC). NIT-1 cells were cultured and maintained in Ham's F12K medium with 2 mM L-glutamine adjusted to contain 1.5 g/L sodium bicarbonate, 90%; heat-inactivated dialyzed fetal bovine serum(FBS), 10%; 100 units/mL penicillin G, 100 units/mL streptomycin (pH 7.4) and 1% non-essential amino acids(NEAA). were maintained in humidified environment comprising 5%CO2/95% air at 37° C.
NIT-1 cells were seeded into 96-well plates at a density of 1.0×10^5 cells per well and cultured in their normal growth media overnight. Next day, cells were incubated in the presence of streptozotocin (STZ) (8 μM) and the polysaccharide mixture (abbreviated as “FPA”, 100 μg/mL) of the present invention for 24 hrs, then cell viability was determined by MTT assay.
NIT-1 cells are pancreatic beta cell lines established from transgenic mice spontaneously developing beta-cell adenoma, thus, NIT-1 cells are suitable for hyperglycemia study for they are not responsive to glucose in the physiological range. […] Accordingly, the protective effect of the present polysaccharide mixture of example 1 on STZ-treated NIT-1 cells was evaluated by MTT assay. Result is illustrated in FIG. 1.
In general terms: Tetrazolium dyes change colour on reduction, which living cells bring about.

In the case of `CN(N=O)C(=O)N[C@H]1C(O)O[C@H](CO)[C@@H](O)[C@@H]1O` (mixture of isomers) [STZ, streptozotocin], the “portion of NIT-1 cells died” value is on record as “about 60%”.
